{"source": "paper PMC12866788", "about": "“Alternative Pathway for Methyl Supply through the Coupling of SHMT1 and PEMT to Maintain Astrocytic Homeostasis in Parkinson's Disease” (Advanced Science, 2025)", "target": "T1, SHMT1-PEMT complex (Mus musculus, UniProt P50431+Q61907)", "T1 construct": "native SHMT1-PEMT complex, co-immunoprecipitate / NP-40 lysate of mouse primary astrocytes; full length, untagged; direct SHMT1-PEMT contact not proven", "T1 sequence (P50431 1-478)": "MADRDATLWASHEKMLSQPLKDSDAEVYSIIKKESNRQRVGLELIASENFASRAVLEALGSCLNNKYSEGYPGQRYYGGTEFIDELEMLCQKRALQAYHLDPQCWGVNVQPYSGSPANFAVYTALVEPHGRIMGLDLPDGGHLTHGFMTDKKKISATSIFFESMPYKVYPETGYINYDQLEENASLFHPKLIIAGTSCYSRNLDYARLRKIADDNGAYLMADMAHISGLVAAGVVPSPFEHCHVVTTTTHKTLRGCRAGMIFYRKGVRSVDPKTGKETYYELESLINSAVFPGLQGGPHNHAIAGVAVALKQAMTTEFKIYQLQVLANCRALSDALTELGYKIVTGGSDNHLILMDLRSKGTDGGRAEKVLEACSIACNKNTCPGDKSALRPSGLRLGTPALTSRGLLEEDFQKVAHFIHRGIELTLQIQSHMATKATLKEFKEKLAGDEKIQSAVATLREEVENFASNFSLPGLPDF", "T1 sequence (Q61907 1-199)": "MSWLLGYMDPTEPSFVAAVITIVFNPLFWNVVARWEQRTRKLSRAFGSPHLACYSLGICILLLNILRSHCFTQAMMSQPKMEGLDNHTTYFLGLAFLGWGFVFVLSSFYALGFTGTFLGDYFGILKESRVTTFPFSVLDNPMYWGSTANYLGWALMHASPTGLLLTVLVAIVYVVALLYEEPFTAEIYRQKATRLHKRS", "assay": "CETSA and DARTS of co-IP samples, Western blot", "assay_type": "biochemical", "details": "10 µM isoorientin; astrocytes with MPP+ 24 h; heating at 37-67 °C 3 min; protease K digestion 1:400-1:3200; either chain may hold the compound", "data": [{"smiles": "O=c1cc(-c2ccc(O)c(O)c2)oc2cc(O)c([C@@H]3O[C@H](CO)[C@@H](O)[C@H](O)[C@H]3O)c(O)c12", "note": "[TMA0698, Isoorientin]", "values": [{"measurement": "CETSA and DARTS of co-IP samples, Western blot", "value": "we found that Iso significantly promoted SHMT1 and PEMT protein stability"}]}]}
